Drawing on US20060079453A1, “Hla binding peptides and their uses” (priority 2002, published 2006), this text covers IC50 for 16 molecules.

Among the targets are HLA-DR DRB1*0701 (DR7) (Homo sapiens, UniProt P01903+P01911, A100R/A102G/A103Q/D57E/D86V/E43K/F76Y/K127E/L162R/M171V/P40G/Q125H/Q99D/R33Q/R42Y/R54Q/S133A/S66F/T210M/V115G/Y107V/Y59L/Y89S); HLA-DR DRB1*0101 (DR1) (Homo sapiens, UniProt P01903+P01911, A100R/D57E/F55L/F60I/F76Y/I96L/L162R/M171V/P40L/Q125E/R42F/V115G/Y59C); HLA-DR DRB1*1302 (DR13) (Homo sapiens, UniProt P01903+P01911, A100E/A169T/K41T/L162R/M171V/P40S/Q125H/Q178H/Q39Y/Q99D/R42S/S66N/T262R/V115G/W38E/Y61H); HLA-DR DRB1*1501 (DR15) (Homo sapiens, UniProt P01903+P01911); HLA-DR DRB1*0802 (DR8) (Homo sapiens, UniProt P01903+P01911, A100R/A103L/A169T/F76Y/H45Y/I96F/K41T/L162R/M171V/P40S/Q125H/Q178H/Q39Y/Q99D/R218S/R42G/S66Y/V115G/W38E); HLA-DR DRB4*0101 (DR53) (Homo sapiens, UniProt P01903+P13762, G164S); HLA-DR DRB1*0401 (DR4) (Homo sapiens, UniProt P01903+P01911, A100K/A169T/F76Y/I96L/K127E/L162R/M171V/N62H/P40V/Q125Y/R42H/S133A/S149N/S66Y/V115G/V209L/W38E); HLA-DR DRB1*0301 (DR3) (Homo sapiens, UniProt P01903+P01911, A100K/A102G/A103R/A169T/F55Y/I96L/K41T/L162R/M171V/P40S/Q125H/Q178H/Q39Y/R42S/S66N/T106N/T262R/W38E/Y61H).

Test in all cases: biochemical
What all share (assay type): binding

Another test deals with HLA-DR DRB5*0101 (DR51) (Homo sapiens, UniProt P01903+Q30154). The following applies: DRB5 *0101.
For a further test, the target named is HLA-DR DRB1*0901 (DR9) (Homo sapiens, UniProt P01903+P01911, A100R/A103E/D57H/D86V/F55Y/F60I/F76Y/I96F/K127E/L162R/M171V/P40D/Q125H/Q99R/R33Q/R42F/S133A/S66N/T210M/V115G/W38K/Y107V/Y59G/Y89S). The settings on record: read-out: DRB1 *0901.

Read-outs that look alike come from different tables or passages of the source. No end group written: not given here.

Sequence of HLA-DR DRB1*1302 (DR13) (P01903 26-254 limits assumed, other chains not shown): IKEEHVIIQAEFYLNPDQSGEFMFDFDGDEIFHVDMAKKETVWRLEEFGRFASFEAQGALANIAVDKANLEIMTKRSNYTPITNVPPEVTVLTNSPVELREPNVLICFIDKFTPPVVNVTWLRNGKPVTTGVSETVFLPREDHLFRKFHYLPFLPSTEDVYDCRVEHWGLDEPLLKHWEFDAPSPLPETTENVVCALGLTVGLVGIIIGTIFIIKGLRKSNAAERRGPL
Sequence of HLA-DR DRB1*0301 (DR3) (P01903 26-254 limits assumed, other chains not shown): as above

Consider LDIYQKLYIKQEEQK, for which the IC50 against HLA-DR DRB1*0701 (DR7) (DRB1 *0701) was greater than 88300 nM; against HLA-DR DRB1*0101 (DR1) (DRB1 *0101), 2830 nM; against HLA-DR DRB5*0101 (DR51), 6960 nM; at HLA-DR DRB1*1302 (DR13) (DRBI *1302) it was 4350 nM; against HLA-DR DRB1*1501 (DR15) (DRBI *1501), 47 nM; at HLA-DR DRB1*0802 (DR8) it was 1200 nM. Also, the figures for the IC50 at HLA-DR DRB4*0101 (DR53) (DRB4 *0101) and at HLA-DR DRB1*0401 (DR4) (DRB1 *0401) were 70 nM and 1490 nM, respectively.

ALLIIPPKIHISIEL: the IC50 against HLA-DR DRB1*0701 (DR7) (DRB1 *0701) was 8.4 nM; at HLA-DR DRB1*0101 (DR1) (DRB1 *0101), 648 nM; against HLA-DR DRB5*0101 (DR51), 7140 nM; at HLA-DR DRB1*1501 (DR15) (DRBI *1501), 1820 nM; against HLA-DR DRB1*0802 (DR8) it was 12000 nM; against HLA-DR DRB4*0101 (DR53) (DRB4 *0101) it was 10 nM. Moreover, the IC50 against HLA-DR DRB1*0401 (DR4) (DRB1 *0401) amounted to 1740 nM.

For KCEFQDAYVILLSEKK, the IC50 at HLA-DR DRB1*0701 (DR7) (DRB1 *0701) was 336 nM; at HLA-DR DRB1*0101 (DR1) (DRB1 *0101), 14 nM; at HLA-DR DRB5*0101 (DR51), 20 nM; at HLA-DR DRB1*1302 (DR13) (DRBI *1302) it was greater than 10300 nM; on HLA-DR DRB1*1501 (DR15) (DRBI *1501), greater than 47600 nM; at HLA-DR DRB1*0802 (DR8), 489 nM. Also, the IC50 on HLA-DR DRB1*0301 (DR3) was 5790 nM; against HLA-DR DRB4*0101 (DR53) (DRB4 *0101), greater than 19600 nM; at HLA-DR DRB1*0401 (DR4) (DRB1 *0401), 73 nM.

Take SFLQNPQTSLCCFRK: the IC50 was determined as 7030 nM on HLA-DR DRB1*0701 (DR7) (read-out: DRB1 *0701), 7070 nM on HLA-DR DRB1*0802 (DR8) (read-out: DRB1 *0802), 1830 nM on HLA-DR DRB1*0301 (DR3) (read-out: DRB1 *0301) and 671 nM at HLA-DR DRB1*0401 (DR4) (read-out: DRB1 *0401).

Take TYSYSFDSLFSAVKN: the IC50 on HLA-DR DRB1*0802 (DR8) (read-out: DRB1 *0802) is 2260 nM; at HLA-DR DRB1*0401 (DR4) (read-out: DRB1 *0401), 73 nM.

Consider ILFLVKMNALRRLPV, for which the IC50 on HLA-DR DRB1*0701 (DR7) (DRB1 *0701) was determined as 56 nM; on HLA-DR DRB1*0101 (DR1) (DRB1 *0101), 0.8 nM; against HLA-DR DRB5*0101 (DR51), 14 nM; against HLA-DR DRB1*1501 (DR15) (DRBI *1501), 1.4 nM; against HLA-DR DRB1*0802 (DR8), 19 nM; at HLA-DR DRB4*0101 (DR53) (DRB4 *0101) it was 7.6 nM. For the same molecule, at HLA-DR DRB1*0401 (DR4) (DRB1 *0401), the IC50 turned out to be 5.6 nM.

QKILIKIPVTKNIIT: the IC50 on HLA-DR DRB1*0701 (DR7) (DRB1 *0701) worked out at 534 nM; at HLA-DR DRB1*0101 (DR1) (DRB1 *0101), 993 nM; against HLA-DR DRB5*0101 (DR51) it was 297 nM; on HLA-DR DRB1*1302 (DR13) (DRBI *1302), 332 nM; on HLA-DR DRB1*1501 (DR15) (DRBI *1501), 3610 nM; against HLA-DR DRB1*0802 (DR8) it was 2240 nM. Moreover, the IC50 on HLA-DR DRB4*0101 (DR53) (DRB4 *0101) was 953 nM; at HLA-DR DRB1*0401 (DR4) (DRB1 *0401), 303 nM.

On to NHLINTPKIMPHHII, for which the IC50 against HLA-DR DRB5*0101 (DR51) came to 8880 nM; on HLA-DR DRB1*1501 (DR15) (DRBI *1501), 560 nM; on HLA-DR DRB1*0802 (DR8), 1300 nM; against HLA-DR DRB4*0101 (DR53) (DRB4 *0101) it was 1630 nM; on HLA-DR DRB1*0401 (DR4) (DRB1 *0401), 4800 nM.

As to KKNIIALLIIPPKIIA, the IC50 on HLA-DR DRB1*0701 (DR7) (read-out: DRB1 *0701) worked out at 495 nM; at HLA-DR DRB1*0101 (DR1) (read-out: DRB1 *0101) it was 13 nM; on HLA-DR DRB1*0802 (DR8) (read-out: DRB1 *0802), 157 nM.

Consider YILLKKILSSRFNQM, for which the IC50 at HLA-DR DRB1*0701 (DR7) (DRB1 *0701) was determined as 8.3 nM; against HLA-DR DRB1*0101 (DR1) (DRB1 *0101), 220 nM; against HLA-DR DRB5*0101 (DR51), 83 nM; against HLA-DR DRB1*1501 (DR15) (DRBI *1501), 26 nM; at HLA-DR DRB1*0802 (DR8) it was 18 nM; at HLA-DR DRB4*0101 (DR53) (DRB4 *0101), 340 nM. Moreover, the IC50 at HLA-DR DRB1*0401 (DR4) (DRB1 *0401) was determined as 183 nM.

Take FIHFFTWGTMFVPKY: the IC50 against HLA-DR DRB1*0701 (DR7) (DRB1 *0701) was 489 nM; against HLA-DR DRB5*0101 (DR51), 9610 nM; on HLA-DR DRB1*1302 (DR13) (DRBI *1302), 328 nM; against HLA-DR DRB1*1501 (DR15) (DRBI *1501) it was 2380 nM; on HLA-DR DRB1*0802 (DR8) it was 1700 nM; at HLA-DR DRB1*0401 (DR4) (DRB1 *0401) it was 273 nM.

As to `CC[C@H](C)[C@H](NC(=O)[C@H](Cc1ccc(O)cc1)NC(=O)[C@@H]1CCCN1)C(=O)N[C@@H](CC(C)C)C(=O)N[C@@H](CC(C)C)C(=O)N[C@H](C(=O)N[C@@H](CO)C(=O)N[C@@H](CO)C(=O)N[C@@H](CCCCN)C(=O)N[C@H](C(=O)N[C@@H](CO)C(=O)N[C@H](C(=O)N[C@H](C(=O)N[C@@H](CCCCN)C(=O)N[C@@H](CC(=O)O)C(=O)O)C(C)C)[C@@H](C)O)C(C)C)C(C)C`, the IC50 worked out at 38 nM against HLA-DR DRB1*0701 (DR7); 1.1 nM against HLA-DR DRB1*0101 (DR1); 32 nM against HLA-DR DRB5*0101 (DR51); 7.2 nM against HLA-DR DRB1*1302 (DR13); 22 nM on HLA-DR DRB1*1501 (DR15); 12 nM on HLA-DR DRB1*0802 (DR8). Moreover, the IC50 is 107 nM against HLA-DR DRB4*0101 (DR53) and 64 nM at HLA-DR DRB1*0401 (DR4).

Regarding FENLVAENVKPPKVD, the IC50 on HLA-DR DRB1*0701 (DR7) (DRB1 *0701) was 120000 nM; at HLA-DR DRB1*0101 (DR1) (DRB1 *0101), 56 nM; on HLA-DR DRB5*0101 (DR51), 62700 nM; on HLA-DR DRB1*1302 (DR13) (DRBI *1302) it was 3030 nM; on HLA-DR DRB1*1501 (DR15) (DRBI *1501), greater than 50800 nM; against HLA-DR DRB1*0802 (DR8), greater than 25000 nM. The IC50 on HLA-DR DRB4*0101 (DR53) (DRB4 *0101) was 9300 nM; on HLA-DR DRB1*0401 (DR4) (DRB1 *0401) it was 2370 nM.

On to QKQLLTNHLINTPK, for which the IC50 on HLA-DR DRB1*0701 (DR7) (read-out: DRB1 *0701) turned out to be 4410 nM; at HLA-DR DRB1*0802 (DR8) (read-out: DRB1 *0802), 21000 nM.

Turning to DSSIEGNYTLRVDCT, the results for the IC50 at HLA-DR DRB1*0701 (DR7) (read-out: DRB1 *0701), on HLA-DR DRB1*0901 (DR9) and on HLA-DR DRB1*0802 (DR8) (read-out: DRB1 *0802) were 14500 nM, greater than 187000 nM and greater than 163000 nM, respectively.

With LYYLFNQHIKKELYH, the IC50 against HLA-DR DRB1*0701 (DR7) (DRB1 *0701) came out at 10200 nM; at HLA-DR DRB1*0101 (DR1) (DRB1 *0101), 27 nM; against HLA-DR DRB1*1302 (DR13) (DRBI *1302), 327 nM; against HLA-DR DRB1*0802 (DR8), 1770 nM; on HLA-DR DRB4*0101 (DR53) (DRB4 *0101), 1090 nM.
